Measurements taken from patent US20130252813A1, “Herbicidal Compositions for Tolerant or Resistant Sugar Beet Crops” (Bayer CropScience AG, priority 1998, published 2013).
Structures can show the parent of a compound that is named as a salt.

Assays:
Type in all cases: in vivo
[1] = system: Amaranthus retroflexus; experiment: Herbicidal action (field trial, sequential treatment, Table 8); details: dose 200 g A.S./ha post-emergence at the 2-3-leaf stage; scorings 22 days after application
Procedure: (§1) Transgenic sugar beet plants with resistance to one or more herbicides (A) were grown together with typical weed plants in the open in 2×5 m plots under natural field conditions; alternatively, the weed population established naturally while the sugar beet plants grew. Treatment with the compositions according to the invention and, for control purposes, with separate application of the active ingredients of the components alone, was carried out under standard conditions with a plot sprayer at an application rate of 200-300 liters of water per hectare in parallel trials in accordance with the scheme of Table 1, i.e. pre-sowing/pre-emergence, […] or post-emergence at the early, medium or late stage.
(§2) […] Damage and development of all aerial plant organs was recorded. The scoring was done using a percentage scale (100% activity=all plants dead; 50% activity=50% of the plants and green plant organs dead; 0% activity=no discernible effect=like control plot). The score values of in each case 4 plots were averaged.

[2] = system: Setaria viridis; experiment: as above; details: dose 200 g A.S./ha post-emergence at the 2-3-leaf stage; scorings 22 days after application
Procedure: as §1, §2

[3] = system: Echinochloa crus-galli; experiment: Herbicidal action and selectivity in sugar beet crop (field trial, Table 4); details: application in 3-leaf stage, scoring 4 weeks after application
Procedure: as §1
(§3) At 2, 4, 6 and 8 week intervals after application, the herbicidal activity of the active ingredients or active ingredient mixtures were scored visually by comparing the treated plots with untreated control plots. Damage and development of all aerial plant organs was recorded. The scoring was done using a percentage scale (100% activity=all plants dead; 50% activity=50% of the plants and green plant organs dead; 0% activity=no discernible effect=like control plot). The score values of in each case 4 plots were averaged.

[4] = system: transgenic sugar beet; experiment: Damage to transgenic sugar beet - field trial (Table 2); details: application in 2-4-leaf stage
Procedure: as §1, §3

[5] = system: Kochia scoparia; experiment: Herbicidal action (field trial, Table 6); details: application in the 3-5-leaf stage, scoring 4 weeks after application
Procedure: as §1, §3

[6] = system: Galium aparine; experiment: Herbicidal action (field trial, Table 6); details: application in the 3-5-leaf stage, scoring 4 weeks after application
Procedure: as §1, §3

[7] = system: Setaria viridis; experiment: Herbicidal action in sugar beet - field trial (Table 2); details: application in 2-4-leaf stage, scoring 3 weeks after application
Procedure: as §1, §2

[8] = system: Avena fatua; experiment: Herbicidal action and selectivity in sugar beet crop (field trial, Table 5); details: application in the 3-5-leaf stage, scoring 4 weeks after application
Procedure: as §1, §3

[9] = system: Galium aparine; experiment: Herbicidal action in sugar beet crop (greenhouse experiment, Table 3); details: application in the 4-5-leaf stage, scoring 3 weeks after application
Text: Seeds or rhizomes of monocotyledonous and dicotyledonous weeds are placed in sandy loam soil in cardboard pots, covered with soil and grown in the greenhouse under good growth conditions. […] The compositions according to the
Invention, which are formulated as wettable powders or as emulsion concentrates, are sprayed at various dosages onto the green plant organs at an application rate of 600 to 800 l of water per ha (converted). After the experimental plants have remained in the greenhouse for approx. 3 to 4 weeks under optimal growth conditions, the effect of the preparations is scored visually in comparison with untreated controls. The compositions according to the invention also have a good herbicidal activity against a broad spectrum of economically Important grass weeds and broad-leaved weeds when applied post-emergence.

[10] = system: transgenic sugar beet; experiment: Damage to transgenic sugar beet (greenhouse experiment, Table 3); details: greenhouse Table 3, application in the 4-5-leaf stage
[11] = system: transgenic sugar beet; experiment: Damage to transgenic sugar beet (field trial, Table 4); details: application in 3-leaf stage
Procedure: as §1, §3

[12] = system: transgenic sugar beet; experiment: Damage to transgenic sugar beet (field trial, Table 5); details: application in the 3-5-leaf stage
Procedure: as §1, §3

CP(=O)(O)CCC(N)C(=O)O (stereo not shown) [(A1.2), glufosinate monoammonium salt]
Herbicidal action in % against Amaranthus retroflexus [1]: 55%
Herbicidal action in % against Setaria viridis [2]: 60%
Herbicidal action in % against Echinochloa crus-galli [3]: 45%
Herbicidal action in % against Echinochloa crus-galli ([3]; dose 10 g A.S./ha): 60%
Herbicidal action in % against Echinochloa crus-galli ([3]; dose 65 g A.S./ha): 85%
Damage to transgenic sugar beet ([4]; dose 37.5 g A.S./ha): 0
Damage to transgenic sugar beet ([4]; dose 75 g A.S./ha): 0
Damage to transgenic sugar beet ([4]; dose 150 g A.S./ha): 0
Damage to transgenic sugar beet ([4]; dose 300 g A.S./ha): 0
Herbicidal action in % against Kochia scoparia ([5]; dose 250 g A.S./ha): 30%
Herbicidal action in % against Kochia scoparia ([5]; dose 300 g A.S./ha): 52%
Herbicidal action in % against Kochia scoparia ([5]; dose 600 g A.S./ha): 75%
Herbicidal action in % against Galium aparine ([6]; dose 250 g A.S./ha): 20%
Herbicidal action in % against Galium aparine ([6]; dose 300 g A.S./ha): 40%
Herbicidal action in % against Galium aparine ([6]; dose 600 g A.S./ha): 85%
Herbicidal action in % against Setaria viridis ([7]; dose 37.5 g A.S./ha): 35%
Herbicidal action in % against Setaria viridis ([7]; dose 75 g A.S./ha): 85%
Herbicidal action in % against Setaria viridis ([7]; dose 150 g A.S./ha): 95%
Herbicidal action in % against Setaria viridis ([7]; dose 300 g A.S./ha): 98%
Herbicidal action in % against Avena fatua ([8]; dose 150 g A.S./ha): 30%
Herbicidal action in % against Avena fatua ([8]; dose 300 g A.S./ha): 65%
Herbicidal action in % against Avena fatua ([8]; dose 600 g A.S./ha): 95%
Herbicidal action in % against Galium aparine ([9]; dose 125 g A.S./ha): 45%
Herbicidal action in % against Galium aparine ([9]; dose 250 g A.S./ha): 60%
Herbicidal action in % against Galium aparine ([9]; dose 500 g A.S./ha): 85%
Damage to transgenic sugar beet ([10]; dose 125 g A.S./ha): 0
Damage to transgenic sugar beet ([10]; dose 250 g A.S./ha): 0
Damage to transgenic sugar beet ([10]; dose 500 g A.S./ha): 0
Damage to transgenic sugar beet ([11]; dose 0 g A.S./ha): 0
Damage to transgenic sugar beet ([11]; dose 10 g A.S./ha): 0
Damage to transgenic sugar beet ([11]; dose 65 g A.S./ha): 0
Damage to transgenic sugar beet ([12]; dose 150 g A.S./ha): 0
Damage to transgenic sugar beet ([12]; dose 300 g A.S./ha): 0
Damage to transgenic sugar beet ([12]; dose 600 g A.S./ha): 0
